1 compound from patent US20110160399A1, “HISTONE MODIFICATION INHIBITOR SPECIFIC TO TARGET GENE” (NIHON UNIVERSITY, priority 2008, published 2011) can be followed below.

For one assay, the system named is LARP1 gene expression. Description: Expression analysis of LARP1 gene by quantitative PCR in HEK293 cells. Type of assay: cell-based, human. The settings on record: 150 nM, one week, compared to esterified SAHA+p16 PIP or SAHA+non-targeting PIP, FIG. 11. As for the experimental part: HEK293 cells were used to analyze LARP1 gene expression. HEK293 cells are a cell line established by transformation of human embryonic kidney cells with the adenovirus E1 gene. The LARP1 gene includes, in its gene region, a sequence similar to the sequence of the regulatory region in the p16 gene recognized by SAHA+p16 PIP, as described above. More specifically, the expression analysis was accomplished as follows. HEK293 cells were cultured in DMEM growth medium containing 10% fetal calf serum (FCS). During culture, the medium was replaced every two days by a culture solution containing the synthesized compound (SAHA+p16 PIP, esterified SAHA+p16 PIP or SAHA+non-targeting PIP) at a final concentration of 150 nM, and cell culture was continued for one week in the medium containing the above synthesized compound. After one week, the cells were lysed with 1 ml of TRIzol and then mixed with 200 μl of chloroform, followed by centrifugation at 12000×g at 4° C. for 10 minutes. Then, the supernatant was mixed with an equal volume of isopropanol and centrifuged at 12000×g at 4° C. for 10 minutes. Then, the pellet was washed with a 70% ethanol solution and centrifuged at 5000×g for 5 minutes to remove the supernatant. […] The RNA (1 μg) was used as a template to synthesize cDNA, followed by quantitative PCR. […]

The subject of assay [1] is acetylation of histone H3 lysine 9 in the p16 genomic region. Description: Genomic region-specific acetylation analysis (ChIP, anti-histone H3K9 acetyl antibody), p16 genomic region. Type of assay: cell-based, human. The settings on record: HeLa cells, 150 nM, 7 days; FIG. 10. The protocol:
(§1) In a 10% fetal bovine serum-containing DMEM medium prepared to contain the synthesized compound (SAHA+p16 PIP or SAHA+non-targeting PIP) or SAHA at a final concentration of 150 nM, HeLa cells were cultured at 37° C. in the presence of 5% CO2 for 7 days. After culture, 5×10^6 to 1×10^7 confluent cells were harvested in 100 mm diameter cell culture dishes (Corning 430167) and then subjected to chromatin immunoprecipitation assay with a MILIPORE 17-295 Chromatin Immunoprecipitation (ChIP) assay kit.
(§2) The detailed procedures used are as follows. To the harvested cells cultured for 7 days, formalin was added at a final concentration of 1% and incubated at 37° C. for 10 minutes to fix the cells, whereby proteins and DNAs were crosslinked within the cells. Then, glycine was added at a final concentration of 0.25 M and the supernatant was removed, followed by washing the cell layer. Then, the cell layer was treated with 220 μl lysis buffer and the cell lysate was collected with a scraper. […] Real-time RT-PCR.” More specifically, the purified DNA was quantitatively analyzed with SYBR premix EX Taq (TAKARA BIO, Shiga, Japan) in a Thermal Cycler Dice Real-time System TP-800 (TAKARA BIO, Shiga, Japan). […]

Assay [2] relates to acetylation of histone H3 lysine 9 in the genomic region of the LARP1 gene. The assay can be described thus: Genomic region-specific acetylation analysis (ChIP, anti-histone H3K9 acetyl antibody), LARP1 gene region. Type of assay: cell-based, human. The conditions noted are these: HeLa cells, 150 nM, 7 days; FIG. 10. The protocol:
as §1, §2

The subject of assay [3] is histone deacetylase (HDAC). The assay can be described thus: HDAC activity assay (HDAC Fluorimetric Assay/Drug Discovery Kit). Type of assay: biochemical, human. The conditions noted are these: HDAC-containing HeLa cell nuclear fraction, 37°C for 1 hour, various concentrations; FIG. 2. As for the experimental part: To verify whether the activity of histone deacetylase (HDAC) was inhibited by compounds composed of the synthesized SAHA derivatives and polyamides attached to each other, an HDAC Fluorimetric Assay/Drug Discovery Kit (BIOMOL international) was used in the experiment. Although details followed the instructions of the kit manufacturer, an HDAC-containing HeLa cell (human uterine cervical cancer cell line) nuclear fraction was added to an acetylation substrate and incubated at 37° C. for 1 hour in the presence of various concentrations of the synthesized compounds or trichostatin A (hereinafter referred to as TSA) used as a positive control, followed by addition of the developer included in the kit to stop the HDAC-catalyzed reaction. Then, the samples were transferred to a 96-well assay plate and measured with ARVO EX (Perkin Elmer) for emission at 460 nm from the reaction product upon excitation at 360 nm.

With `CN(C)CCCNC(=O)CCNC(=O)c1cc(NC(=O)c2nc(NC(=O)c3nc(NC(=O)CCNC(=O)c4cc(NC(=O)c5nc(NC(=O)CCCNC(=O)c6cc(NC(=O)c7nc(NC(=O)CCNC(=O)c8cc(NC(=O)c9cc(NC(=O)c%10nc(NC(=O)CCNC(=O)CCNC(=O)c%11ccc(NC(=O)CCCCCCC(=O)NO)cc%11)cn%10C)cn9C)cn8C)cn7C)cn6C)cn5C)cn4C)cn3C)cn2C)cn1C` [SAHA+p16 PIP, SAHA-ββImPyPyβImPyγImPyβImImPyβDp], the “expression of the LARP1 gene” value with LARP1 gene expression is recorded as “increased expression”. In assay [1], the “acetylation of histone H3 lysine 9 in the p16 genomic region” value is listed as “enhanced acetylation” and the “enhancement of histone H3 lysine 9 acetylation in the p16 genomic region compared to SAHA alone or SAHA+non-targeting PIP” value was “about 2 fold”. In assay [2], the “acetylation of histone H3 lysine 9 in the genomic region of the LARP1 gene” value was “enhanced acetylation” and the “enhancement of histone H3 lysine 9 acetylation in the LARP1 genomic region compared to SAHA alone or SAHA+non-targeting PIP” value is reported as “about 2.5 fold”. Besides, the anti-HDAC activity entry in assay [3] is reported as “confirmed to have anti-HDAC activity”.
